Measured values from patent US5604263A, “Treating osteoporosis with humulones” (Hoechst Japan Limited, priority 1994, dated 1997).
Like-named read-outs stand apart in the source and are kept apart here.

Test system: bone resorption (pit formation) by bone cell containing osteoclasts
Assay: Pit formation assay (bone resorption inhibiting activity; absorption cavities on ivory pieces)
Format: cell-based, ICR mice
Conditions: for No. of pits (Mean ± SD): control 328.0 ± 51.0; for IC50 / inhibition at 10 µM / inhibition at 1 µM / inhibition at 0.1 µM / inhibition at 0.01 µM / inhibition at 0.001 µM / inhibition at 0.0001 µM / inhibition at 10 pM: Mus musculus, Osteoclast; for IC50: read-out: 50% inhibitory (ID50) value
Method: From 10 to 11-day old ICR mice (purchased from Charles River Inc.) were extracted femur and shank, which were then chopped using scissors in a-MEM medium (purchased from Flow Laboratories Inc.) containing 5% FBS (purchased from Irving Scientific Inc.), 100 U/ml penicillin and 100 μg/ml streptomycin. And further, the resulting supernatant was recovered by pipetting, washed with the medium and then suspended in 5% FBS, a-MEM medium to form bone cell containing osteoclasts. The bone cell suspension thus prepared was incubated in the medium containing rat parathyroid hormone for one week. After completion of the incubation, the cells were recovered using 0.05% trypsin EDTA-PBS and applied to pit formation assay.
An ivory piece was cut to a thickness of 150 μm using a precision low speed cutter (purchased from Buehler GmbH) and then round pieces with a diameter of 6 mm were cut out using a one-hole punch. These ivory pieces were immersed in 70% ethanol, subjected to sonication twice for each 5 minutes and then washed three times with sterile PBS and twice with the medium. These ivory pieces were placed in a 96-well culture plate (purchased from Falcon Inc.) and 100 µl of the medium containing medicaments at various concentrations was added. Then, 100 μl of the media containing the above prepared bone cells 1×10^5 was added to each well. Incubation was carried out at 37° C. in a 10% CO2 incubator for 2 days. After completion of the incubation, the cell over the ivory piece was removed, absorption cavities were stained with Coomassie Brilliant Blue and the number of the absorption cavities thus formed was counted under microscope.
Organosynthetic humulone was prepared according to Obara, H. et al., Bull. Chem. Soc. Jpn., vol.62, p.3034-3035 (1989). Bone resorption inhibiting activities of the organosynthetic humulone thus obtained and α acids obtained in example 1 were determined by means of the assay as described in (2) of example 2.
Bone resorption inhibiting activities of the native humulone thus obtained in Example 4 and the organosynthetic humulone thus obtained in Example 3 were determined by means of the assay as described in (2) of example 2.

IC50 (Example 3, organosynthetic humulone and α acids of example 1)	IC50 (Example 5)	SMILES	No. of pits (Mean ± SD) (Example 5, dose 10^-5 M)	No. of pits (Mean ± SD) (Example 5, dose 10^-6 M)	No. of pits (Mean ± SD) (Example 5, dose 10^-7 M)	No. of pits (Mean ± SD) (Example 5, dose 10^-8 M)	No. of pits (Mean ± SD) (Example 5, dose 10^-9 M)	No. of pits (Mean ± SD) (Example 5, dose 10^-10 M)	No. of pits (Mean ± SD) (Example 5, dose 10^-11 M)	inhibition at 10 µM (Example 5, dose 10^-5 M)	inhibition at 1 µM (Example 5, dose 10^-6 M)	inhibition at 0.1 µM (Example 5, dose 10^-7 M)	inhibition at 0.01 µM (Example 5, dose 10^-8 M)	inhibition at 0.001 µM (Example 5, dose 10^-9 M)	inhibition at 0.0001 µM (Example 5, dose 10^-10 M)	inhibition at 10 pM (Example 5, dose 10^-11 M)
0.13 µM	0.026 µM	CC(C)=CCC1C(=O)C(C(=O)CC(C)C)=C(O)C(O)(CC=C(C)C)C1=O (stereo not shown) [Organosynthetic humulone, humulone]	6.8 ± 5.3	33.7 ± 20.2	70.7 ± 9.3	217.0 ± 89.1	221.8 ± 88.3	221.3 ± 54.1	281.3 ± 38.1	97.9%	89.7%	78.4%	33.8%	32.4%	32.5%	14.2%
	0.0059 µM	CC(C)=CCC1=C(O)C(C(=O)CC(C)C)=C(O)C(O)(CC=C(C)C)C1=O (single isomer, unassigned) [Native humulone, humulone]	0.3 ± 0.5	6.5 ± 3.8	34.5 ± 7.4	128.5 ± 23.1	251.5 ± 135.4	274.3 ± 54.9	274.3 ± 91.6	99.9%	98%	89.5%	60.8%	23.3%	16.4%	16.4%
